Columns and labels:
[1] = 298.15 K; 101.33 kPa; Liquid
[2] = refractive index (Na D-line) (dimensionless); settings: 298.15 K; 101.33 kPa; Liquid; Standard Abbe refractometry
[3] = xn = mol fraction of the nth substance listed; settings: 298.15 K, 101.33 kPa, Liquid
[4] = excess molar enthalpy (molar enthalpy of mixing); xn = mol fraction of the nth substance listed; settings: 298.15 K, 101.33 kPa, Liquid

ClCCCl [1,2-dichloroethane]
Settings	mass density [kg/m3]	refractive index
[1]	1245.65	–
[2]	–	1.442

ClCCCCl [1,3-dichloropropane]
Settings	mass density [kg/m3]	refractive index
[1]	1178.34	–
[2]	–	1.4455

ClCCCCCl [1,4-dichlorobutane]
Settings	mass density [kg/m3]	refractive index
[1]	1133.32	–
[2]	–	1.452

ClCCCCCl [1,4-dichlorobutane] + CCCC(=O)OCC
Settings	excess molar enthalpy, [4] [kcal/mol]	mass density, [3] [kg/m3]
x2 = 0.0516	-0.00502	1117.97
x2 = 0.1009	–	1103.15
x2 = 0.1108	-0.0127	–
x2 = 0.1531	–	1087.78
x2 = 0.172	-0.0208	–
x2 = 0.2042	–	1072.99
x2 = 0.2328	-0.0297	–
x2 = 0.2583	–	1057.63
x2 = 0.2891	-0.0397	–
x2 = 0.3128	–	1042.49
x2 = 0.3455	-0.0467	–
x2 = 0.3701	–	1026.87
x2 = 0.3976	-0.053	–
x2 = 0.4267	–	1011.74
x2 = 0.4477	-0.0578	–
x2 = 0.4757	-0.0598	–
x2 = 0.5265	-0.0616	–
x2 = 0.5437	–	981.4
x2 = 0.5821	-0.0614	–
x2 = 0.6058	–	965.8
x2 = 0.6443	-0.0597	–
x2 = 0.6681	–	950.44
x2 = 0.7111	-0.0554	–
x2 = 0.7293	–	935.66
x2 = 0.7821	-0.0468	–
x2 = 0.8567	-0.0343	–
x2 = 0.8601	–	905.05
x2 = 0.9259	–	890.1
x2 = 0.9323	-0.0189	–

ClCCCCCl [1,4-dichlorobutane] + CCOC(C)=O
Settings	excess molar enthalpy [kcal/mol]	mass density [kg/m3]
[3], x2 = 0.0693	–	1118.08
[3], x2 = 0.1314	–	1104.46
[3], x2 = 0.1955	–	1090.4
[3], x2 = 0.2579	–	1076.44
[3], x2 = 0.3205	–	1062.24
[3], x2 = 0.3812	–	1048.26
[3], x2 = 0.442	–	1034.12
[3], x2 = 0.5019	–	1019.95
[3], x2 = 0.5602	–	1006.01
[3], x2 = 0.6172	–	992.21
[3], x2 = 0.6757	–	977.84
[3], x2 = 0.7842	–	950.68
[3], x2 = 0.8386	–	936.74
[3], x2 = 0.8929	–	922.7
[3], x2 = 0.9453	–	908.9
[4], x2 = 0.0692	-0.00201	–
[4], x2 = 0.1414	-0.00473	–
[4], x2 = 0.2133	-0.00848	–
[4], x2 = 0.2818	-0.0131	–
[4], x2 = 0.347	-0.0181	–
[4], x2 = 0.4035	-0.0231	–
[4], x2 = 0.4514	-0.0274	–
[4], x2 = 0.4919	-0.0309	–
[4], x2 = 0.5264	-0.0339	–
[4], x2 = 0.5571	-0.0363	–
[4], x2 = 0.5836	-0.0386	–
[4], x2 = 0.6072	-0.0403	–
[4], x2 = 0.6278	-0.0414	–
[4], x2 = 0.6525	-0.0423	–
[4], x2 = 0.7106	-0.0388	–
[4], x2 = 0.7719	-0.0344	–
[4], x2 = 0.8337	-0.0275	–
[4], x2 = 0.8915	-0.0193	–
[4], x2 = 0.9475	-0.00997	–

ClCCCCCCl [1,5-dichloropentane]
Settings	mass density [kg/m3]	refractive index
[1]	1095.27	–
[2]	–	1.454

From the NIST ThermoML archive (doi:10.1016/j.jct.2005.03.020)
